The target of this test is T1, HIV-integrase (recombinant integrase) (Human immunodeficiency virus type 1 group M subtype B, UniProt P12497).
T1 construct: Recombinant integrase (0.26 ng) was incubated with the beads
The test can be described thus: HIV-Integrase Inhibition Activity (SPA bead strand-transfer assay). The test is classed as biochemical. The following applies: biotin labeled substrate DNA on SPA beads, P33 labeled target DNA, read-out: Activity (IC50 against HIV-integrase). On the procedure:
HIV-Integrase Inhibition Activity. To evaluate in-vitro activity against HIV-integrase, 5 pmole of biotin labeled substrate DNA was bound to 100 μg of Streptavidin coated PVT SPA beads (Amersham Pharmacia Biotech). Recombinant integrase (0.26 ng) was incubated with the beads for 90 min at 37° C. Unbound enzyme was removed by washing the complex followed by addition of inhibitors and 0.1 fmol of P33 labeled target DNA. The reaction was stopped by adding EDTA to a final concentration of 10 mM. Samples were counted in TopCountNXT (Packard) and the CPM was used as a measure of integration. The reaction condition was as described in A. Engelman and R. Craigie, J. Virol. 69, 5908-5911 (1995). The sequences of substrate and target DNA were described in Nucleic Acid Research 22, 1121-1122 (1994). Activity equal to A refers to a compound having IC50=0.002 to 0.10 μM while B and C denote compounds having IC50=0.1 to 1.0 μM and IC50≧1.0 μM respectively.

In the case of `O=C(NCc1ccc(F)cc1)c1nc2n(c(=O)c1O)CCS(=O)(=O)C21CC1` [Example 8, Spiro[cyclopropane-1,9′(4′H)-pyrimido[2,1-c][1,4]thiazine]-2′-carboxamide, N-[(4-fluorophenyl)methyl]-6′,7′-dihydro-3′-hydroxy-4′-oxo-, 8′,8′-dioxide], the IC50 lay in the range of 2 to 100 nM.
In the case of `CC1SCCCn2c1nc(C(=O)NCc1ccc(F)cc1)c(O)c2=O` (centres unmarked) [Example 20, N-(4-Fluorobenzyl)-3-hydroxy-10-methyl-4-oxo-6,7,8,10-tetrahydro-4H-pyrimido[2,1-c][1,4]thiazepine-2-carboxamide], the IC50 was 2 to 100 nM.
As to `O=C(NCc1ccc(F)cc1-n1cncn1)c1nc2n(c(=O)c1O)CCCS(=O)(=O)C21CCOCC1` [Example 28, Spiro[4H-pyran-4,10′(4′H)-[6H]pyrimido[2,1-c][1,4]thiazepine]-2′-carboxamide, N-[[4-fluoro-2-(1H-1,2,4-triazol-1-yl)phenyl]methyl]-2,3,5,6,7′,8′-hexahydro-3′-hydroxy-4′-oxo-, 9′,9′-dioxide], the IC50 was in the range of 2 to 100 nM.
Take `O=C(NCc1ccc(F)cc1)c1nc2n(c(=O)c1O)CCCS(=O)(=O)C21CCOCC1` [Example 26, Spiro[4H-pyran-4,10′(4′H)-[6H]pyrimido[2,1-c][1,4]thiazepine]-2′-carboxamide, N-[(4-fluorophenyl)methyl]-2,3,5,6,7′,8′-hexahydro-3′-hydroxy-4′-oxo-, 9′,9′-dioxide]: the IC50 lay within 2 to 100 nM.
With `O=C(NCc1ccc(F)cc1)c1nc2n(c(=O)c1O)CCS(=O)(=O)C2` [Example 2, Pyrimido[2,1-c][1,4]thiazine-2-carboxamide, N-[(4-fluorophenyl)methyl]-4,6,7,9-tetrahydro-3-hydroxy-4-oxo-, 8,8-dioxide], the IC50 was 100 to 1000 nM.

Values taken from patent publication US7897592B2, “HIV integrase inhibitors” (priority 2005, dated 2011).
